Assay results taken from US20070293484A1, “Thiophene Heteroaryl Amines” (SUGEN, INC., priority 2004, published 2007).

How the values were obtained:
GST-Flk1 = molecular target: T1, GST-Flk1 (Mus musculus, UniProt P35918); experiment: GST-FLK-1 bioassay (ELISA, tyrosine kinase activity on poly(glu,tyr)); type: biochemical
T1 construct: GST-Flk1cd purified from sf9 recombinant baculovirus transformation (SUGEN, Inc.); host or cells: Sf9 insect cells (recombinant baculovirus)
Protocol: The assays described herein are performed in an ELISA (Enzyme-Linked Immunosorbent Sandwich Assay) format (Voller, et al., 1980, “Enzyme-Linked Immunosorbent Assay,” Manual of Clinical Immunology, 2d ed., Rose and Friedman, Am. Soc. Of Microbiology, Washington, D.C., pp. 359-371). The general procedure is as follows: a compound is introduced to cells expressing the test kinase, either naturally or recombinantly, for a selected period of time after which, if the test kinase is a receptor, a ligand known to activate the receptor is added. The cells are lysed and the lysate is transferred to the wells of an ELISA plate previously coated with a specific antibody recognizing the substrate of the enzymatic phosphorylation reaction. Non-substrate components of the cell lysate are washed away and the amount of phosphorylation on the substrate is detected with an antibody specifically recognizing phosphotyrosine compared with control cells that were not contacted with a test compound.
This assay analyzes the tyrosine kinase activity of GST-Flk1 on poly(glu,tyr) peptides.
• 1. Corning 96-well ELISA plates (Corning Catalog No. 5805-96). • 2. poly(glu,tyr) 4:1, lyophilizate (Sigma Catalog #P0275). • 3. Preparation of poly(glu,tyr)(pEY) coated assay plates: Coat 2 ug/well of poly(glu,tyr)(pEY) in 100 μL PBS, hold at room temperature for 2 hours or at 4° C. overnight. Cover plates well to prevent evaporation. • 4. PBS Buffer: for 1 L, mix 0.2 g KH2PO4, 1.15 g Na2HPO4, 0.2 g KCl and 8 g NaCl in approx. 900 ml dH2O. When all reagents have dissolved, adjust the pH to 7.2 with HCl. Bring total volume to 1 L with dH2O. • 5. PBST Buffer: to 1 L of PBS Buffer, add 1.0 ml Tween-20. • 6. TBB—Blocking Buffer: for 1 L, mix 1.21 g TRIS, 8.77 g NaCl, 1 ml TWEEN-20 in approximately 900 ml dH2O. Adjust pH to 7.2 with HCl. Add 10 g BSA, stir to dissolve. Bring total volume to 1 L with dH2O. Filter to remove particulate matter. • 7. 1% BSA in PBS: To make a 1× working solution, add 10 g BSA to approx. 990 ml PBS buffer, stir to dissolve. Adjust total volume to 1 L with PBS buffer, filter to remove particulate matter. • 8. 50 mM Hepes pH 7.5. • 9. GST-Flk1cd purified from sf9 recombinant baculovirus transformation (SUGEN, Inc.). • 10. 4% DMSO in dH2O. • 11. 10 mMATP in dH2O. • 12. 40 mM MnCl2 • 13. Kinase Dilution Buffer (KDB): mix 10 ml Hepes (pH 7.5), 1 ml 5M NaCl, 40 μL 100 mM sodium orthovanadate and 0.4 ml of 5% BSA in dH2O with 88.56 ml dH2O. • 14. NUNC 96-well V bottom polypropylene plates, Applied Scientific Catalog #AS-72092 • 15. EDTA: mix 14.12 g ethylenediaminetetraacetic acid (EDTA) to approx. 70 ml dH2O. Add 10 N NaOH until EDTA dissolves. Adjust pH to 8.0. Adjust total volume to 100 ml with dH2O. • 16. 1^0 Antibody Dilution Buffer: mix 10 ml of 5% BSA in PBS buffer with 89.5 ml TBST. • 17. Anti-phosphotyrosine monoclonal antibody conjugated to horseradish peroxidase (PY99 HRP, Santa Cruz Biotech). • 18. 2,2′-Azinobis(3-ethylbenzthiazoline-6-sulfonic acid (ABTS, Moss, Cat. No. ABST). • 19. 10% SDS. Procedure: • 1. Coat Corning 96-well ELISA plates with 2 μg of polyEY peptide in sterile PBS as described in step 3 of Materials and Reagents. • 2. Remove unbound liquid from wells by inverting plate. Wash once with TBST. Pat the plate on a paper towel to remove excess liquid. • 3. Add 100 μl of 1% BSA in PBS to each well. Incubate, with shaking, for 1 hr. at room temperature. • 4. Repeat step 2. • 5. Soak wells with 50 mM HEPES (pH7.5) (150 μl/well). • 6. Dilute test compound with dH2O/4% DMSO to 4 times the desired final assay concentration in 96-well polypropylene plates. • 7. Add 25 μl diluted test compound to ELISA plate. In control wells, place 25 μl of dH2O/4% DMSO. • 8. Add 25 μl of 40 mM MnCl2 with 4×ATP (2 μM) to each well. • 9. Add 25 μl 0.5M EDTA to negative control wells. • 10. Dilute GST-Flk1 to 0.005 μg (5 ng)/well with KDB. • 11. Add 50 μl of diluted enzyme to each well. • 12. Incubate, with shaking, for 15 minutes at room temperature. • 13. […]

PDGFR = molecular target: T2, PDGFR (Homo sapiens, UniProt P09619); experiment: PDGFR bioassay (ELISA, in vitro kinase activity); type: biochemical; settings: PDGFR-β expressing NIH 3T3 cell lysate; read-out: IC50 (μM) PDGF-R
T2 construct: SUGEN, Inc; host or cells: NIH 3T3 cell lysate; receptor captured on plate with monoclonal anti-PDGFR antibody 28D4C10
T2 sequence (P09619 33-1106, species assumed): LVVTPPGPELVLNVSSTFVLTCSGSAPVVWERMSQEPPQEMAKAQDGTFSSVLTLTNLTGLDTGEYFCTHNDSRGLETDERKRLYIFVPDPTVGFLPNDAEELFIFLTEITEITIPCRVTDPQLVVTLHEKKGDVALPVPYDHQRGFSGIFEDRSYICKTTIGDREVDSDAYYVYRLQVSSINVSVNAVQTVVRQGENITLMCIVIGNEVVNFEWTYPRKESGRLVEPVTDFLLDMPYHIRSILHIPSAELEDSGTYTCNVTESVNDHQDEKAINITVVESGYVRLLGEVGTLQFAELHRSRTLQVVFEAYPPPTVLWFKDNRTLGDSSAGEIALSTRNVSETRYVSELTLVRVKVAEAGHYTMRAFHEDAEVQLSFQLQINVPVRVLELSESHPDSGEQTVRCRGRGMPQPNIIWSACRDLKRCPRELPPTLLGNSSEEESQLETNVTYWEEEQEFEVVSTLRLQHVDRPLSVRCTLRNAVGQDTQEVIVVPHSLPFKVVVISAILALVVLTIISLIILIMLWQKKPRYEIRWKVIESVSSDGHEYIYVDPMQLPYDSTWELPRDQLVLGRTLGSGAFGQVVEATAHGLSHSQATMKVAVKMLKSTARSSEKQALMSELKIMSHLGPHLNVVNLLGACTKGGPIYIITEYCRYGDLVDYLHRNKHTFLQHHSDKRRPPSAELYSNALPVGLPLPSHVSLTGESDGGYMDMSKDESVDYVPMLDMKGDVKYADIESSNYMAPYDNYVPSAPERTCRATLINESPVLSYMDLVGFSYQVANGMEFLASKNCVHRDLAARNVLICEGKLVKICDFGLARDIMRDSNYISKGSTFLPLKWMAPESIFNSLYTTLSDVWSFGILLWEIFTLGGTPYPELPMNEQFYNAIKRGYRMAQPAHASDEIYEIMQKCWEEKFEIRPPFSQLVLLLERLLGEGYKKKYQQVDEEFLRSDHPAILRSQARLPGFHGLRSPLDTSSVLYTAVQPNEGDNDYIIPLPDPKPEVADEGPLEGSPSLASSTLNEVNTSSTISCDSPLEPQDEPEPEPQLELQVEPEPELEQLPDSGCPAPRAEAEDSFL

T1 sequence (P35918 784-1345 limits assumed): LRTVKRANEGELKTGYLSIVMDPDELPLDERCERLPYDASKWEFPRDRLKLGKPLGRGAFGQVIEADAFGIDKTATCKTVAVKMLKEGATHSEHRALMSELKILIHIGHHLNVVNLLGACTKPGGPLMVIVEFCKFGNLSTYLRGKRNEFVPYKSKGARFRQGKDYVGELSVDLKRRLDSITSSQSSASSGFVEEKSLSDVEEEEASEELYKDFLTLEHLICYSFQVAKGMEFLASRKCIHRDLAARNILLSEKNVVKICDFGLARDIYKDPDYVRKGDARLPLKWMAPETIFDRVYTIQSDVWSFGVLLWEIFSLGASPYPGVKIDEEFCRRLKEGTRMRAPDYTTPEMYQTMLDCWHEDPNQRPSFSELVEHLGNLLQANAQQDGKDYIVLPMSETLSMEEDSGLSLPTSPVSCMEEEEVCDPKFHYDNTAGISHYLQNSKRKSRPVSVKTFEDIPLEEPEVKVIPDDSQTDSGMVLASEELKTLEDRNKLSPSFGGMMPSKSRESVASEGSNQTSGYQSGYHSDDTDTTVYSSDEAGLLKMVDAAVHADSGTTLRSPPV

SMILES | IC50 (GST-Flk1) [µM] | IC50 (PDGFR) [µM]
O=C(CN1CCOCC1)Nc1ccc(Nc2ncc(-c3ccsc3)cn2)cc1 [Example 26, 2-morpholin-4-yl-N-{4-[(5-thien-3-ylpyrimidin-2-yl)amino]phenyl}acetamide] | 5.6 | 1.1
Oc1ccc(Nc2ncc(-c3cccs3)cn2)cc1 [Example 15, 4-(5-thiophen-2-yl-pyrimidin-2-ylamino)-phenol] | 4.61 | 1.7
Nc1ccc(C(=O)Nc2ccc(Nc3ncc(-c4cccs4)cn3)cc2)cc1 [Example 16, 4-amino-N-{4-[(5-thien-2-ylpyrimidin-2-yl)amino]phenyl}benzamide] | > 20 | 0.99
O=C(Nc1ccc(Nc2ncc(-c3ccsc3)cn2)cc1)N1CCCC1CN1CCCC1 (stereo not shown) [Example 33, 2-(pyrrolidin-1-ylmethyl)-N-{4-[(5-thien-3-ylpyrimidin-2-yl)amino]phenyl}pyrrolidine-1-carboxamide] | 4.55 | 0.66
O=C(O)c1cccc(Nc2ncc(-c3cccs3)cn2)c1 [Example 17, 3-[(5-thien-2-ylpyrimidin-2-yl)amino]benzoic acid] | > 20 | 15.2
CC(C)Nc1cccc(Nc2ncc(-c3ccsc3)cn2)c1 [Example 37, N-isopropyl-N′-(5-thien-3-ylpyrimidin-2-yl)benzene-1,3-diamine] | 3.7 | 0.56
CCN(CC)CC(=O)Nc1ccc(Nc2ncc(-c3ccsc3)cn2)cc1 [Example 27, N-(4-(5-(thiophen-3-yl)pyrimidin-2-ylamino)phenyl)-2-(diethylamino)acetamide] | 6 | 0.55
O=C(Nc1ccc(F)cc1)Nc1ncc(-c2ccsc2)cn1 [Example 10, N-(4-fluorophenyl)-N′-(5-thien-3-ylpyrimidin-2-yl)urea] | > 20 | > 20
CN1CCN(CC(=O)Nc2ccc(Nc3ncc(-c4ccsc4)cn3)cc2)CC1 [Example 23, 2-(4-methylpiperazin-1-yl)-N-{4-[(5-thien-3-ylpyrimidin-2-yl)amino]phenyl}acetamide] | 5.1 | 0.55
O=C(Nc1ccccc1)c1cccc(Nc2ncc(-c3cccs3)cn2)c1 [Example 18, N-phenyl-3-[(5-thien-2-ylpyrimidin-2-yl)amino]benzamide] | > 20 | > 20
CCN(CC)CCNC(=O)Nc1ccc(Nc2ncc(-c3ccsc3)cn2)cc1 [Example 32, N-[2-(diethylamino)ethyl]-N′-{4-[(5-thien-3-ylpyrimidin-2-yl)amino]phenyl}urea] | 5.7 | 0.53
Cc1ccc(Nc2ncc(-c3ccsc3)cn2)cc1NC(=O)c1ccc(CN2CCN(C)CC2)cc1 [Example 40, 4-(4-methyl-piperazin-1-ylmethyl)-N-[2-methyl-5-(5-thiophen-3-yl-pyrimidin-2-ylamino)-phenyl]-benzamide] | 10 | 2.6
CC(=O)Nc1ccc(Nc2ncc(-c3ccsc3)cn2)cc1 [Example 2, N-{4-[(5-thien-3-ylpyrimidin-2-yl)amino]phenyl}acetamide] | 3.74 | 0.07

Molecules with a lower IC50 (GST-Flk1), results first:

IC50 (GST-Flk1) [µM] | IC50 (PDGFR) [µM] | SMILES
1.53 | 0.06 | Nc1cccc(Nc2ncc(-c3ccsc3)cn2)c1 [Example 6, N-(5-thien-3-ylpyrimidin-2-yl)benzene-1,3-diamine]
3.5 | 0.66 | CC(=O)Nc1cccc(Nc2ncc(-c3ccsc3)cn2)c1 [Example 36, N-{3-[(5-thien-3-ylpyrimidin-2-yl)amino]phenyl}acetamide]
2.5 | 0.94 | O=C(CN1CCOCC1)Nc1cccc(Nc2ncc(-c3ccsc3)cn2)c1 [Example 61, 2-morpholin-4-yl-N-[3-(5-thiophen-3-yl-pyrimidin-2-ylamino)-phenyl]-acetamide]
2 | 0.12 | O=C(NCC(O)CN1CCOCC1)Nc1cccc(Nc2ncc(-c3ccsc3)cn2)c1 (stereo not shown) [Example 51, 1-(2-hydroxy-3-morpholin-4-yl-propyl)-3-[3-(5-thiophen-3-yl-pyrimidin-2-ylamino)-phenyl]-urea]
2 | 0.15 | c1cc(Nc2ncc(-c3ccsc3)cn2)cc(N2CCOCC2)c1 [Example 39, N-(3-morpholin-4-ylphenyl)-5-thien-3-ylpyrimidin-2-amine]
0.73 | 0.22 | CN1CCN(Cc2ccc(C(=O)Nc3cccc(Nc4ncc(-c5ccsc5)cn4)c3)cc2)CC1 [Example 11, 4-[(4-methylpiperazin-1-yl)methyl]-N-{3-[(5-thien-3-ylpyrimidin-2-yl)amino]phenyl}benzamide]
2.3 | 0.22 | CN1CCN(CCNC(=O)Nc2cccc(Nc3ncc(-c4ccsc4)cn3)c2)CC1 [Example 53, 1-[2-(4-methyl-piperazin-1-yl)-ethyl]-3-[3-(5-thiophen-3-yl-pyrimidin-2-ylamino)-phenyl]-urea]
1.9 | 0.14 | O=C(NCCN1CCOCC1)Nc1cccc(Nc2ncc(-c3ccsc3)cn2)c1 [Example 49]
2.52 | 0.26 | CN1CCN(Cc2ccc(C(=O)Nc3ccc(Nc4ncc(-c5ccsc5)cn4)cc3)cc2)CC1 [Example 12, 4-[(4-methylpiperazin-1-yl)methyl]-N-{4-[(5-thien-3-ylpyrimidin-2-yl)amino]phenyl}benzamide]
2.4 | 0.09 | O=C(CNCCN1CCOCC1)Nc1cccc(Nc2ncc(-c3ccsc3)cn2)c1 [Example 56, 2-(2-morpholin-4-yl-ethylamino)-N-[3-(5-thiophen-3-yl-pyrimidin-2-ylamino)-phenyl]-acetamide]
2.3 | 0.18 | O=C(Nc1cccc(Nc2ncc(-c3ccsc3)cn2)c1)N1CCC(N2CCCC2)CC1 [Example 54, 4-pyrrolidin-1-yl-piperidine-1-carboxylic acid [3-(5-thiophen-3-yl-pyrimidin-2-ylamino)-phenyl]-amide]
3 | 1.8 | CCN(CC)c1cccc(Nc2ncc(-c3ccsc3)cn2)c1 [Example 38, N,N-diethyl-N′-(5-thien-3-ylpyrimidin-2-yl)benzene-1,3-diamine]
1.6 | 0.36 | O=C(NCCN1CCS(=O)(=O)CC1)Nc1cccc(Nc2ncc(-c3ccsc3)cn2)c1 [Example 52, 1-[2-(1,1-dioxo-1λ^6-thiomorpholin-4-yl)ethyl]-3-[3-(5-thiophen-3-yl-pyrimidin-2-ylamino)-phenyl]-urea]
